Measurements from ChEMBL document CHEMBL1156861, “Synthesis and structure-activity relationship of substitutions at the C-1 position of Delta9-tetrahydrocannabinol” (Bioorg Med Chem Lett, 2010).

Assays:
Cannabinoid receptor 1 = Cannabinoid receptor 1 (Homo sapiens, UniProt P21554); experiment: Displacement of [3H]CP-55940 from CB1 receptor
Cannabinoid receptor 2 = Cannabinoid receptor 2 (Homo sapiens, UniProt P34972); experiment: Displacement of [3H]CP-55940 from CB2 receptor
[1] = Selectivity ratio of Ki for CB1 receptor to Ki for CB2 receptor

Chain of Cannabinoid receptor 2 (P34972 whole entry): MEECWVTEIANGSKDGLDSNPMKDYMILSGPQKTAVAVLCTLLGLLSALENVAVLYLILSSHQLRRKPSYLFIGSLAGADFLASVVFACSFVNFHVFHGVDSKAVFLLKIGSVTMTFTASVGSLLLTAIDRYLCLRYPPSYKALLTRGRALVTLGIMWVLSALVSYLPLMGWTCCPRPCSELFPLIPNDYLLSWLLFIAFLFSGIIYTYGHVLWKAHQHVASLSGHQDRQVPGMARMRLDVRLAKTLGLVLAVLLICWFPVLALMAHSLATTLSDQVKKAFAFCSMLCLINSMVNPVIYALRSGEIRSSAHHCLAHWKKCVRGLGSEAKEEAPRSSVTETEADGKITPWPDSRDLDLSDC
Chain of Cannabinoid receptor 1 (P21554 whole entry): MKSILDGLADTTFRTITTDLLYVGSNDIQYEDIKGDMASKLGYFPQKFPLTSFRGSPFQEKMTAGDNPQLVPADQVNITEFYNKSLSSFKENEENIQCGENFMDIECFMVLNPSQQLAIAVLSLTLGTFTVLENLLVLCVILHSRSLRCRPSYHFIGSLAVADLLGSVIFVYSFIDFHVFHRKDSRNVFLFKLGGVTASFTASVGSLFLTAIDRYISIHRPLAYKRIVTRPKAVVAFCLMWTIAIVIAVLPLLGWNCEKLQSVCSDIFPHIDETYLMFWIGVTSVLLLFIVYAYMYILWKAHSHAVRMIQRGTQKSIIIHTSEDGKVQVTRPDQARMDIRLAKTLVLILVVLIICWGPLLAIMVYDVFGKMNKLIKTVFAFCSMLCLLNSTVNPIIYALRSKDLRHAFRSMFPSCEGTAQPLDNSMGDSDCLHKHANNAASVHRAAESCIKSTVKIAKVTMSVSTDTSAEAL

Row | SMILES | Ki (Cannabinoid receptor 1) | Ki (Cannabinoid receptor 2) | Ratio Ki [1]
1 | CCCCCc1cc2c(c(C(=O)O)c1)[C@@H]1C=C(C)CC[C@H]1C(C)(C)O2 | > 3000 nM | > 3000 nM | –
2 | CCCCCc1cc2c(c([S+](C)[O-])c1)[C@@H]1C=C(C)CC[C@H]1C(C)(C)O2 (single isomer, unassigned; diastereomer A) | > 3000 nM | 1930 nM | –
3 | CCCCCc1cc2c(c(C(=O)NC(CO)CO)c1)[C@@H]1C=C(C)CC[C@H]1C(C)(C)O2 | > 3000 nM | 2000 nM | –
4 | CCCCCc1cc(NC(=O)c2ccncc2)c2c(c1)OC(C)(C)[C@@H]1CCC(C)=C[C@@H]21 | > 3000 nM | 1770 nM | –
5 | CCCCCc1cc2c(c(C(=O)NC)c1)[C@@H]1C=C(C)CC[C@H]1C(C)(C)O2 | > 3000 nM | 1260 nM | –
6 | CCCCCc1cc(C#N)c2c(c1)OC(C)(C)[C@@H]1CCC(C)=C[C@@H]21 | 1720 nM | 387 nM | 3
7 | CCCCCc1cc(CN)c2c(c1)OC(C)(C)[C@@H]1CCC(C)=C[C@@H]21 | > 3000 nM | > 3000 nM | –
8 | CCCCCCC(C)(C)c1cc(N)c2c(c1)OC(C)(C)[C@@H]1CCC(C)=C[C@@H]21 | 11.7 nM | 2.9 nM | 4
9 | CCCCCc1cc(NC(=O)CN(C)C)c2c(c1)OC(C)(C)[C@@H]1CCC(C)=C[C@@H]21 | > 3000 nM | > 3000 nM | –
10 | CCCCCCC(C)(C)c1cc(NC(C)=O)c2c(c1)OC(C)(C)[C@@H]1CCC(C)=C[C@@H]21 | 1340 nM | 216 nM | 6
11 | CCCCCc1cc(NC(C)=O)c2c(c1)OC(C)(C)[C@@H]1CCC(C)=C[C@@H]21 | > 3000 nM | 1400 nM | –
12 | CCCCCc1cc(CNC(C)=O)c2c(c1)OC(C)(C)[C@@H]1CCC(C)=C[C@@H]21 | > 3000 nM | 1500 nM | –
13 | CCCCCCC(C)(C)c1cc(NC(=O)NC)c2c(c1)OC(C)(C)[C@@H]1CCC(C)=C[C@@H]21 | 333 nM | 257 nM | 1
14 | CCCCCc1cc(N)c2c(c1)OC(C)(C)[C@@H]1CCC(C)=C[C@@H]21 | 616 nM | 215 nM | 3
15 | CCCCCc1cc2c(c(C(=O)N(C)C)c1)[C@@H]1C=C(C)CC[C@H]1C(C)(C)O2 | > 3000 nM | 1210 nM | –
16 | CCCCCCC(C)(C)c1cc(NC(=O)c2ccncc2)c2c(c1)OC(C)(C)[C@@H]1CCC(C)=C[C@@H]21 | > 3000 nM | 1090 nM | > 3
17 | CCCCCc1cc2c(c(N(C)C)c1)[C@@H]1C=C(C)CC[C@H]1C(C)(C)O2 | > 3000 nM | > 3000 nM | –
18 | CCCCCc1cc(NC(=O)NC)c2c(c1)OC(C)(C)[C@@H]1CCC(C)=C[C@@H]21 | > 3000 nM | 2050 nM | –
19 | CCCCCCC(C)(C)c1cc(O)c2c(c1)OC(C)(C)[C@@H]1CCC(C)=C[C@@H]21 | 0.24 nM | 0.2 nM | 1
20 | CCCCCc1cc(CNS(C)(=O)=O)c2c(c1)OC(C)(C)[C@@H]1CCC(C)=C[C@@H]21 | > 3000 nM | > 3000 nM | –
21 | CCCCCCC(C)(C)c1cc(C#N)c2c(c1)OC(C)(C)[C@@H]1CCC(C)=C[C@@H]21 | 67.8 nM | 5.3 nM | 13
22 | CCCCCc1cc(NS(C)(=O)=O)c2c(c1)OC(C)(C)[C@@H]1CCC(C)=C[C@@H]21 | > 3000 nM | 1720 nM | –
23 | CCCCCc1cc(NC(N)=O)c2c(c1)OC(C)(C)[C@@H]1CCC(C)=C[C@@H]21 | > 3000 nM | > 3000 nM | –
24 | CCCCCc1cc(CNC(N)=O)c2c(c1)OC(C)(C)[C@@H]1CCC(C)=C[C@@H]21 | > 3000 nM | 782 nM | –
25 | CCCCCc1cc2c(c([S+](C)[O-])c1)[C@@H]1C=C(C)CC[C@H]1C(C)(C)O2 (single isomer, unassigned; diastereomer B) | > 3000 nM | > 3000 nM | –
26 | CCCCCc1cc(NC(=O)OC)c2c(c1)OC(C)(C)[C@@H]1CCC(C)=C[C@@H]21 | > 3000 nM | 1400 nM | –
27 | CCCCCc1cc2c(c(C(=O)NCC(N)=O)c1)[C@@H]1C=C(C)CC[C@H]1C(C)(C)O2 | > 3000 nM | > 3000 nM | –
28 | CCCCCc1cc2c(c(SC)c1)[C@@H]1C=C(C)CC[C@H]1C(C)(C)O2 | 955 nM | 469 nM | 2
29 | CCCCCc1cc2c(c(C(N)=O)c1)[C@@H]1C=C(C)CC[C@H]1C(C)(C)O2 | > 3000 nM | 2190 nM | –
30 | CCCCCCC(C)(C)c1cc(NS(C)(=O)=O)c2c(c1)OC(C)(C)[C@@H]1CCC(C)=C[C@@H]21 | 1840 nM | 255 nM | 7
